Read-outs that look alike come from different tables or passages of the source.
Legend:
human FGFR1 = human FGFR1 (Homo sapiens, UniProt P11362); test: 33P isotope-labeled kinase activity test, wild-type FGFR1; conditions: 33P-ATP 5 μM, 120 minutes
From the text: (§1) Assay 1: Evaluation of Wild-Type Kinase Inhibitory Activity In Vitro

human FGFR4 = human FGFR4 (Homo sapiens, UniProt P22455); test: 33P isotope-labeled kinase activity test, wild-type FGFR4; conditions: 33P-ATP 100 μM, 120 minutes
From the text: as §1

[1] = Pharmacokinetics in mice in vivo; conditions: female, mouse, plasma, Balb/c mice; for AUC: read-out: Area under the curve, AUC; for clearance: read-out: Clearance rate; for half-life: read-out: Half-life T1/2 (converted); for bioavailability: read-out: Bioavailability F
Experimental: Assay 3: Evaluation of Compounds' Pharmacokinetics
Experiment purpose: To test the pharmacokinetics of the compound in mice in vivo.
The pharmacokinetics profile in rodents after the intravenous injection and the oral administration of the compound was tested using a standard protocol. In experiments, the candidate compound was prepared as a clear solution, which was administered to the mice as a single intravenous injection and as an oral administration. The medium for the intravenous injection was 10% DMSO/10% solutol/80% water, and the medium for the oral administration was 0.5% sodium carboxymethylcellulose+0.2% Tween. The whole blood samples within 24 hours were collected. All blood samples were added to the well-labeled plastic centrifuge tubes, to which 0.5M K2-EDTA anticoagulant was added in advance. After the collection of blood samples, the blood samples were centrifuged at 4° C. at 3000 g for 10 minutes. The supernatant plasma was collected, promptly placed in the dry ice, and kept at a temperature of −20° C. or lower. The LC-MS/MS analysis method was used to quantitatively analyze the blood concentration, and the pharmacokinetics parameters, such as peak concentration, peak time, clearance rate, half-life, area under the curve and bioavailability were calculated.

Sequence of human FGFR4 (P22455 22-802): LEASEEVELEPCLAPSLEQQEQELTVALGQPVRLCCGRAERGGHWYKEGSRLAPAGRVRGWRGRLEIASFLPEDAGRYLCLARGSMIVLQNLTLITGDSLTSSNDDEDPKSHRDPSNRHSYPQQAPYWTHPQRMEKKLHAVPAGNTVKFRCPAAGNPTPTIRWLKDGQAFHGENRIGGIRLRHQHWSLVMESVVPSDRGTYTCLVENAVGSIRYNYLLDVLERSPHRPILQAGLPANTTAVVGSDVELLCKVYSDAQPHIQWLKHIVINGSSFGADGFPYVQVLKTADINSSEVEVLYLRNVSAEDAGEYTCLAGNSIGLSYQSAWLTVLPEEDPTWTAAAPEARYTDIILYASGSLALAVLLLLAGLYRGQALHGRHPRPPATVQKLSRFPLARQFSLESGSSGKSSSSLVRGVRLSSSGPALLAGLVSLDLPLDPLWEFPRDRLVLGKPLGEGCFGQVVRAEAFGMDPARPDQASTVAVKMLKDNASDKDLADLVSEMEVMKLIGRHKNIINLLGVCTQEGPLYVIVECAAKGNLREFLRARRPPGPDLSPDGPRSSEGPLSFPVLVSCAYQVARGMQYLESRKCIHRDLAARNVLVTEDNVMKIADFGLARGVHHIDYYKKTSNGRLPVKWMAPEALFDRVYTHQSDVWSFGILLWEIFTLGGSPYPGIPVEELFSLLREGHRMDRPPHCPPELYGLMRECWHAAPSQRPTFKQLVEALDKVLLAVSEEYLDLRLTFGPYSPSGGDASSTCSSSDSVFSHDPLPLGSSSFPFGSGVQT
Sequence of human FGFR1 (P11362 22-822): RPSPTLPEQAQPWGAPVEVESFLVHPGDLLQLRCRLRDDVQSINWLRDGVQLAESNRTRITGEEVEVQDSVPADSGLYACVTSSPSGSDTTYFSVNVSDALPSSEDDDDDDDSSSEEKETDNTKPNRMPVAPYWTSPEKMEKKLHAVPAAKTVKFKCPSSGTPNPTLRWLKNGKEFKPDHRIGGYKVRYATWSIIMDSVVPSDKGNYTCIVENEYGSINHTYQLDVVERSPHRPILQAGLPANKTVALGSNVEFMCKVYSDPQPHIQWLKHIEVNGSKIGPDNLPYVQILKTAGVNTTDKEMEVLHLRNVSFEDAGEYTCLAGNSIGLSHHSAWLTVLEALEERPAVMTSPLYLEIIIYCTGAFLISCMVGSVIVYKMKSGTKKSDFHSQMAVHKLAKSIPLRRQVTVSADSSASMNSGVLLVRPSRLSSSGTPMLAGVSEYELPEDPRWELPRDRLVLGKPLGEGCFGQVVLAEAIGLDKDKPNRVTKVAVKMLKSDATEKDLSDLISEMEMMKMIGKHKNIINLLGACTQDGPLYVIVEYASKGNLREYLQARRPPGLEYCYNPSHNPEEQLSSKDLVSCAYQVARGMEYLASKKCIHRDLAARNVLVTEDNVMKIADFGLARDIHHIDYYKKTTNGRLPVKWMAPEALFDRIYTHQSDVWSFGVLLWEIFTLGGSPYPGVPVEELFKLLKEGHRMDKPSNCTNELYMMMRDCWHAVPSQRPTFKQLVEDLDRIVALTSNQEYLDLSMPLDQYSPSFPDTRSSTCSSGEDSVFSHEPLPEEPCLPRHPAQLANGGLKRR

Row | SMILES | IC50 (human FGFR1; IC50 FGFR1, wild-type kinase) | IC50 (human FGFR4) | other results
1 | CCC(=O)N1CC[C@H](c2cc(-c3nc4cc(OC)cc(OC)c4s3)c3c(N)ncnn23)C1 [Example 28] | > 10000 nM | > 10000 nM | –
2 | COc1cc(C)cc2cc(-c3cc([C@H]4CCN(C(=O)/C=C/CN5CCOCC5)C4)n4ncnc(N)c34)sc12 [Example 32] | 4.7 nM | 80 nM | –
3 | COc1cc(OC)c2sc(-c3cc([C@H]4CCN(C(=O)/C=C/CN(C)C)C4)n4ncnc(N)c34)cc2c1F [Example 30] | 1.6 nM | 20 nM | –
4 | CCC(=O)N1CC[C@H](c2cc(-c3cc4cc(C)cc(OC)c4s3)c3c(N)ncnn23)C1 [Example 27] | 4.7 nM | 67 nM | –
5 | C=CC(=O)N1CCC(c2c(COC)c(-c3cc4cc(C)cc(OC)c4s3)c3c(N)ncnn23)C1 (single isomer, unassigned) [Example 19] | – | 0.1 nM | IC50 (human FGFR1; read-out: IC50 FGFR1, wild-type kinase): 0.1 nM
6 | COc1cc(C)cc2cc(-c3cc([C@@H]4CCN(C(=O)/C=C/CN5CCOCC5)C4)n4ncnc(N)c34)sc12 [Example 31] | 1.1 nM | 9.6 nM | –
7 | COc1cc(C)cc2cc(-c3cc(C4CCN(C(=O)/C=C/CN(C)C)C4)n4ncnc(N)c34)sc12 (single isomer, unassigned) [Example 13] | 0.6 nM | 8.7 nM | –
8 | COc1cc(C)cc2cc(-c3cc(C4CCN(C(=O)CC#N)C4)n4ncnc(N)c34)sc12 (single isomer, unassigned) [Example 16] | 0.8 nM | 5.3 nM | –
9 | COc1cc(C)cc2cc(-c3cc(C4CCN(C(=O)CC#N)C4)n4ncnc(N)c34)sc12 (single isomer, unassigned) [Example 15] | 1.5 nM | 6.2 nM | AUC ([1]; intravenous injection (3 npk)): 2.03 µM·h; clearance ([1]; intravenous injection (3 npk)): 52 mL/min/kg; half-life ([1]; intravenous injection (3 npk)): 48 min; AUC ([1]; oral administration (10 npk)): 4.8 µM·h; bioavailability ([1]; oral administration (10 npk)): 70%
10 | C=CC(=O)N1CCC(c2c(COC)c(-c3cc4cc(C)cc(OC)c4s3)c3c(N)ncnn23)C1 (single isomer, unassigned) [Example 18] | 0.1 nM | 0.2 nM | –
11 | C=CC(=O)N1CC[C@H](n2nc(C#Cc3cc(OC)cc(OC)c3)c3c(N)ncnc32)C1 [Reference Example 1, reference compound] | – | – | AUC ([1]; intravenous injection (3 npk)): 5.29 µM·h; clearance ([1]; intravenous injection (3 npk)): 22 mL/min/kg; half-life ([1]; intravenous injection (3 npk)): 42 min; AUC ([1]; oral administration (10 npk)): 11.9 µM·h; bioavailability ([1]; oral administration (10 npk)): 69%
12 | COc1cc(C)cc2cc(-c3cc(C4CCN(C(=O)/C=C/CN(C)C)C4)n4ncnc(N)c34)sc12 (single isomer, unassigned) [Example 12] | 0.2 nM | 2.6 nM | –
13 | CC#CC(=O)N1CC[C@H](c2cc(-c3cc4cc(C)cc(OC)c4s3)c3c(N)ncnn23)C1 [Example 11] | 0.1 nM | 0.1 nM | –
14 | CCC(=O)N1CC[C@@H](c2cc(-c3cc4cc(C)cc(OC)c4s3)c3c(N)ncnn23)C1 [Example 26] | 1.2 nM | 4.2 nM | –
15 | CC#CC(=O)N1CCC(c2c(COC)c(-c3cc4cc(C)cc(OC)c4s3)c3c(N)ncnn23)C1 (centres unmarked) [Example 20] | 0.2 nM | 0.8 nM | –
16 | C=CC(=O)N1CCC(O)(c2cc(-c3cc4cc(C)cc(OC)c4s3)c3c(N)ncnn23)C1 (centres unmarked) [Example 14] | 0.8 nM | 6.6 nM | –
17 | COc1cc(OC)c2sc(-c3cc([C@@H]4CCN(C(=O)/C=C/CN(C)C)C4)n4ncnc(N)c34)cc2c1F [Example 29] | 0.5 nM | 9.2 nM | –
18 | CC#CC(=O)N1CC[C@@H](c2cc(-c3cc4cc(C)cc(OC)c4s3)c3c(N)ncnn23)C1 [Example 10] | 0.2 nM | 1.5 nM | –

Further lines, with some results ahead:

Row | IC50 (human FGFR1; IC50 FGFR1, wild-type kinase) | IC50 (human FGFR4) | SMILES | other results
19 | 0.1 nM | 0.7 nM | C=CC(=O)N1CCC(c2cc(-c3sc4c(OC)cc(C)cc4c3C)c3c(N)ncnn23)C1 (single isomer, unassigned) [Example 8] | –
20 | 0.7 nM | 8.5 nM | C=CC(=O)N1CCC(c2cc(-c3sc4c(OC)cc(C)cc4c3C)c3c(N)ncnn23)C1 (single isomer, unassigned) [Example 7] | –
21 | 250 nM | 477 nM | C=CC(=O)N1CC[C@H](c2cc(-c3cc4cccc(OC)c4o3)c3c(N)ncnn23)C1 [Example 25] | –
22 | 0.2 nM | 0.2 nM | C=CC(=O)N1CC[C@H](c2cc(-c3cc4c(F)c(OC)cc(OC)c4s3)c3c(N)ncnn23)C1 [Example 23] | –
23 | 1.7 nM | 5.4 nM | C=CC(=O)N1CCCC(c2cc(-c3cc4cc(C)cc(OC)c4s3)c3c(N)ncnn23)C1 (centres unmarked) [Example 6] | –
24 | 6.6 nM | 138 nM | CCC(=O)N1CC[C@H](c2cc(-c3cc4c(F)c(OC)cc(OC)c4s3)c3c(N)ncnn23)C1 [Example 21] | –
25 | 0.7 nM | 3.3 nM | C=CC(=O)N1CC[C@H](c2cc(-c3sc4c(OC)cc(Cl)cc4c3C)c3c(N)ncnn23)C1 [Example 9] | –
26 | 0.6 nM | 4.1 nM | C=CC(=O)N1CC[C@@H](c2cc(-c3cc4cc(Cl)cc(OC)c4s3)c3c(N)ncnn23)C1 [Example 4] | –
27 | 126 nM | 462 nM | C=CC(=O)N1CC[C@@H](c2cc(-c3nc4cc(OC)cc(OC)c4s3)c3c(N)ncnn23)C1 [Example 34] | –
28 | 1.5 nM | 9.9 nM | C=CC(=O)N1CC[C@@H](c2cc(-c3cc4c(F)c(OC)cc(OC)c4s3)c3c(N)ncnn23)C1 [Example 22] | –
29 | 2.2 nM | 40 nM | CCC(=O)N1CC[C@@H](c2cc(-c3cc4c(F)c(OC)cc(OC)c4s3)c3c(N)ncnn23)C1 [Example 24] | –
30 | > 10000 nM | > 10000 nM | C=CC(=O)N1CC[C@H](c2cc(-c3nc4cc(OC)cc(OC)c4s3)c3c(N)ncnn23)C1 [Example 17] | –
31 | 0.3 nM | 0.7 nM | C=CC(=O)N1CC[C@H](c2cc(-c3cc4cc(Cl)cc(OC)c4s3)c3c(N)ncnn23)C1 [Example 5] | –
32 | 0.5 nM | 0.9 nM | C=CC(=O)N1CC[C@H](c2cc(-c3cc4cccc(OC)c4s3)c3c(N)ncnn23)C1 [Example 33] | –
33 | 0.4 nM | 0.9 nM | C=CC(=O)N1CCC(c2cc(-c3cc4cc(C)cc(OC)c4s3)c3c(N)ncnn23)C1 (centres unmarked) [Example 1] | –
